Patent publication US20100166804A1, “METHODS” (priority 2007, published 2010)

How the values were obtained:
[1] = test system: patients with a history of bee sting allergy; experiment: Double-blind randomized dose-ranging bee venom challenge (Example 4); type: in vivo; details: 0.5, 1 or 2 mg ketotifen orally twice daily vs placebo; bee venom challenge at two, four and six weeks
Method: (§1) To analyze hypersensitivity to bee venom, a double-blind, randomized, dose-ranging study is carried out with patients with a history of bee sting allergy manifested by urticaria, angioedema, respiratory tract symptoms or hypotension generally using the methods described in Israel et al., Am. J. Respir. Crit. Care Med., (2000) 164:75-80. Eligible patients include those with serum total IgE level of 30-1000 IU/mL and/or a positive skin-prick test to bee venom. Patients must have asthma condition under control with a forced expiratory volume in one second that is at least 80 percent of the predicted value. Patients may not take systemic corticosteroids, beta-blockers, acetylcholinesterase, aspirin, antihistamines and anti-depressants during the study.
Before enrollment, threshold level for reactivity to bee venom allergen is confirmed by a screening double-blind, placebo-controlled bee venom challenge. […] Vital signs are checked, chest auscultation is performed, and peak expiratory flow rates are monitored and bee venom specific IgE level and basal tryptase level are measured every 30 minutes during the challenge and for at least 2 hours after the last dose or the abatement of any symptoms or signs. […] The wheal size is evaluated 15 min after application. […] Patients are closely monitored for any systemic reaction. […]

[2] = test system: patients with a history of peanut allergy; experiment: Double-blind randomized dose-ranging oral food challenge with peanut flour (Example 3); type: in vivo; details: 0.5, 1 or 2 mg ketotifen orally twice daily vs placebo; oral food challenge at two, four and six weeks
Method: as §1, with “peanut,” for “bee venom,”, “peanut” for “bee sting”, “peanut.” for “bee venom.”
(§2) Before enrollment, threshold level for reactivity to peanut allergen is confirmed by a screening double-blind, placebo-controlled oral food challenge. Base line spirometry, peak expiratory flow rates and continuous cardiac monitoring is established. Vital signs are checked, chest auscultation is performed, and peak expiratory flow rates are monitored every 30 minutes during the food challenge and for at least 2 hours after the last dose or the abatement of any symptoms or signs. […]
(§3) Peak expiratory flow rates are monitored every 30 minutes during food challenge for at least 2 hours after the last does or abatement of any symptoms or signs. […]

[3] = test system: subjects with an allergy to peanut; experiment: Oral peanut tolerization therapy with concomitant ketotifen fumarate, randomized double-blind placebo-controlled (Example 5); type: in vivo, patients
Method: A study is performed to evaluate the dose-related effects of ketotifen fumarate on the scope and severity of allergic signs and symptoms resulting from concomitant oral peanut tolerization therapy. The study also evaluates the effects of discontinuation of ketotifen therapy on the scope and severity of allergic signs and symptoms resulting from concomitant oral peanut tolerization therapy after 12 or 16 weeks, while oral peanut tolerization therapy is continued. The study also evaluates the effects of ketotifen therapy on the scope and severity of allergic signs and symptoms resulting from concomitant oral peanut tolerization therapy when ketotifen dosing is initiated after 12 weeks of oral peanut tolerization therapy. The study generally consists of screening, baseline, treatment, and post-treatment follow-up periods, and is randomized, double-blind, placebo-controlled, and in parallel groups.
Patients selected are generally healthy subjects between the ages of 2 and 50 with an allergy to peanut which provokes signs and symptoms of an anaphylactic reaction. The patients may also have co-morbid atopic dermatitis and/or allergic rhinitis. If a patient is selected for the study, they are randomly assigned a treatment of 0.5 mg oral ketotifen fumarate, 2.0 mg oral ketotifen fumarate, or placebo (n=12 for each group).
During the treatment period, patients receive ketotifen fumarate or placebo for one week prior to tolerization therapy. At week 1, oral peanut tolerization therapy is begun with peanut flour, and safety evaluations are performed. The oral dose of peanut flour is increased at weeks 3, 5, 7, 9, 11 and 13, and safety evaluations are performed at that time.
At week 13, half of the patients in each of the ketotifen groups are switched in a double-blind fashion to placebo, and subjects in the placebo treatment group are switched in a double-blind fashion to receive 2.0 mg oral ketotifen. Patients continue in the study for an additional 4 weeks. At weeks 15 and 17, the peanut flour dose is increased, and safety evaluations are performed. […]

[4] = test system: patients with a history of peanut allergy; experiment: Double-blind randomized oral food challenge with peanut flour (Example 1); type: in vivo; details: 1 mg ketotifen orally twice daily vs placebo; oral food challenge at two, four and six weeks
Method: as §1, with “an allergen, e.g., peanut,” for “bee venom,”, “peanut” for “bee sting”, “peanut.” for “bee venom.”, “have taken” for “take”, “prior to and throughout” for “during”
as §2, with “Base line spirometry, peak expiratory flow rates and continuous cardiac monitoring is established.” left out
as §3

[5] = patients initially receiving ketotifen, switched to placebo at week 13, final 4 weeks

CN1CCC(=C2c3ccccc3CC(=O)c3sccc32)CC1 [ketotifen]
patients' tolerance to bee venom (change from base line in log-transformed threshold dose of bee venom that induced hypersensitivity) [1]: significantly increase | patients' tolerance to peanut upon oral ingestion (change from base line in log-transformed threshold dose of peanut flour that induced hypersensitivity) [2]: significantly increase | amount of peanut flour that is well-tolerated ([3]; 0.5 mg or 2.0 mg oral ketotifen fumarate vs placebo during oral peanut tolerization therapy): tolerate more peanut flour than patients in the placebo group | escape therapy required, vs patients continuously receiving ketotifen [3, 5]: require similar escape therapy | escape therapy required, vs patients continuously receiving the placebo [3, 5]: require less escape therapy | patients' threshold sensitivity to peanut upon oral ingestion (change from base line in log-transformed threshold dose of peanut flour that induced hypersensitivity) [4]: significantly increase
